From paper PMC9515952, “Tentative exploration of pharmacodynamic substances: Pharmacological effects, chemical compositions, and multi-components pharmacokinetic characteristics of ESZWD in CHF-HKYd rats” (Frontiers in Cardiovascular Medicine, 2022)
Read-outs that look alike come from different tables or passages of the source.

How the values were obtained:
[1] = Pharmacokinetics of four components of ESZWD in CHF-HKYd rat serum by UPLC-MS/MS; format: in vivo; design: AUC(0-t) / AUC(0−t) / AUC(0-inf) / AUC(0−∞): concentration or dose not given beside the values; conditions: CHF-HKYd rat serum after oral administration of ESZWD, mean ± SD, n = 6
Procedure: All rats were randomly divided into control group, model group, ESZWD low-dose (3.96 g/kg), medium-dose (7.92 g/kg), high-dose (15.84 g/kg) groups, and positive control group (benazepril, 0.5 mg/kg), with six rats in each group. The CHF-HKYd was established after 1 week of feeding. ESZWD and benazepril were administered by gavage separately for 4 weeks after successful modeling, except for the control group. Blood was collected for 5, 10, 20, 30, 45 min, 1, 2, 4, 6, 8, 12, and 24 h, standing for 2 h and centrifuged at 4°C, 3,500 rpm for 10 min, the supernatant was retained. The state of rats was observed and the urine volume at 24 h was measured. The structure and function of rat heart were evaluated by doppler ultrasonography. Serum biomarkers including myocardial injury indicators NT-proBNP, angiotensinII (AngII), aldosterone (ALD), reactive oxygen species (ROS), superoxide dismutase (SOD), malondialdehyde (MDA), and tumor necrosis factor α (TNF-α) and interleukin 6 (IL-6) were detected by ELISA.
Chromatographic analysis was performed using ACQUITY UPLC BEH C18 column (2.1 × 50 mm, […]), the mobile phase was acetonitrile (A) 0.1% formic acid water (B), the flow rate was set as 0.2 mL·min^−1, the column temperature was 35°C, the injection volume was 2 μL, and the gradient conditions were as follows: 0–8 min: 6–11%A, 8–23 min: 11–19%A, 23–45 min: 19–38%A, 45–55 min: 38–47%A, 55–55.1 min: 47–52%A, 55.1–65 min: 52–90%A, 65–66 min: 90–6%A of UPLC-Q-TOF/MS analysis and 0–3 min: 8–10%A, 3–3.5 min: 10–70% A, 3.5–5: 70–80%A, 5–5.1 min: 80–8% A, 5.1–6 min: 8% A of UPLC-MS/MS.
Mass spectrometric detection of UPLC-MS/MS analysis was carried out on electrospray ionization (ESI) ion source, multiple reaction monitoring (MRM) mode, ion spray voltage of 5,500 V, the curtain gas and collision gas were 40 and 9 kPa, respectively, declustering potential (DP) and collision voltage (CE) are shown in Table 1.

[2] = rat; for Stability, Room temperature, Mean ± SD: 4 h; for Stability, Automatic sampler, Mean ± SD: 8 h; for Stability, Long-term freeze, Mean ± SD: 7 d
Procedure: (§1) The stability of all probe drugs was evaluated by LQC and HQC samples under different experimental conditions, including short-term stability [4 h at room temperature (25°C), 8 h in the automatic sampler, and three freeze and thaw cycles, respectively] and long-term stability (7 d at −80°C).

[3] = Stability of four compounds in rat serum (UPLC-MS/MS method validation); conditions: n = 5; for Stability, Room temperature, Mean ± SD: 4 h at room temperature (25°C); for Stability, Automatic sampler, Mean ± SD: 8 h in the automatic sampler; for Stability, Long-term freeze, Mean ± SD: 7 d at −80°C; for Stability, Multigelation, Mean ± SD: three freeze and thaw cycles
Procedure: as §1

[4] = added 20 ng/mL (salsolinol) or 1 ng/mL (others)
[5] = added 100 ng/mL (salsolinol) or 10 ng/mL (others)
[6] = added 750 ng/mL (salsolinol) or 150 ng/mL (others)

| Compound | AUC(0−t) [1] | AUC(0−∞) [1] | CL/F [1] | Cmax [1] | T1/2 [1] | Tmax [1] | V/F [1] | Stability, Room temperature, Mean ± SD [3, 4] | Stability, Room temperature, Mean ± SD [3, 5] | Stability, Room temperature, Mean ± SD [3, 6] | Stability, Automatic sampler, Mean ± SD [3, 4] | Stability, Automatic sampler, Mean ± SD [3, 5] | Stability, Automatic sampler, Mean ± SD [3, 6] | Stability, Long-term freeze, Mean ± SD [3, 4] | Stability, Long-term freeze, Mean ± SD [3, 5] | Stability, Long-term freeze, Mean ± SD [3, 6] | Stability, Multigelation, Mean ± SD [3, 4] | Stability, Multigelation, Mean ± SD [3, 5] | Stability, Multigelation, Mean ± SD [3, 6] | also measured |
| --- | --- | --- | --- | --- | --- | --- | --- | --- | --- | --- | --- | --- | --- | --- | --- | --- | --- | --- | --- | --- |
| Miltrione | 1,098 ± 69.72 ng/mL·h | 1,125 ± 84.73 ng/mL·h | 17.87 ± 1.38 L/h/kg | 178.9 ± 16.24 ng/mL | 4.25 ± 0.82 h | 1.00 ± 0.00 h | 108.7 ± 15.80 L/kg | – | – | – | – | – | – | – | – | – | – | – | – | – |
| C[C@@]12C[C@@]3(O)O[C@@H](O1)[C@]1(COC(=O)c4ccccc4)[C@H]3C[C@@]12O[C@@H]1O[C@H](CO)[C@@H](O)[C@H](O)[C@H]1O [Paeoniflorin] | – | – | – | – | – | – | 41.20 ± 0.83 L/kg | – | – | – | – | – | – | – | – | – | – | – | – | AUC(0-inf) ([1]; Sprague-Dawley (SD)): 2260 ± 179 ng·h/mL; AUC(0-t) ([1]; Sprague-Dawley (SD)): 2240 ± 178 ng·h/mL; half-life ([1]; Sprague-Dawley (SD)): 193 ± 20.4 min; CL/F ([1]; Sprague-Dawley (SD), read-out: CL/F (converted)): 8.86 L/h/kg; Cmax ([1]; Sprague-Dawley (SD), read-out: Cmax): 198 ± 27.7 ng/mL; Tmax ([1]; Sprague-Dawley (SD), read-out: Tmax): 6 ± 2.54 h; half-life ([1]; Sprague-Dawley): ~180 min; Stability, Multigelation, Mean ± SD ([2]; 1 ng/mL): 1.012 ± 0.07 ng/mL; Stability, Multigelation, Mean ± SD ([2]; 10 ng/mL): 10.41 ± 0.73 ng/mL; Stability, Multigelation, Mean ± SD ([2]; 150 ng/mL): 162.2 ± 9.25 ng/mL; Stability, Room temperature, Mean ± SD ([2]; 1 ng/mL): 1.046 ± 0.06 ng/mL; Stability, Room temperature, Mean ± SD ([2]; 10 ng/mL): 10.18 ± 0.72 ng/mL; Stability, Room temperature, Mean ± SD ([2]; 150 ng/mL): 160.7 ± 5.68 ng/mL; Stability, Automatic sampler, Mean ± SD ([2]; 1 ng/mL): 1.053 ± 0.02 ng/mL; Stability, Automatic sampler, Mean ± SD ([2]; 10 ng/mL): 10.51 ± 0.98 ng/mL; Stability, Automatic sampler, Mean ± SD ([2]; 150 ng/mL): 160.2 ± 6.15 ng/mL; Stability, Long-term freeze, Mean ± SD ([2]; 1 ng/mL): 1.010 ± 0.08 ng/mL; Stability, Long-term freeze, Mean ± SD ([2]; 10 ng/mL): 10.19 ± 0.97 ng/mL; Stability, Long-term freeze, Mean ± SD ([2]; 150 ng/mL): 149.6 ± 11.70 ng/mL |
| C[C@@H]1NCCc2cc(O)c(O)cc21 [Salsolinol] | 2,327 ± 261.0 ng/mL·h | 2,344 ± 265.7 ng/mL·h | 8.625 ± 0.96 L/h/kg | 314.2 ± 36.84 ng/mL | 3.271 ± 0.58 h | 1.25 ± 0.59 h | 40.68 ± 9.03 L/kg | 21.07 ± 0.74 ng/mL | 112.2 ± 4.13 ng/mL | 700.5 ± 49.6 ng/mL | 20.68 ± 0.61 ng/mL | 111.3 ± 2.63 ng/mL | 716.3 ± 22.1 ng/mL | 20.9 ± 1.2 ng/mL | 103.9 ± 6.16 ng/mL | 685.1 ± 43.66 ng/mL | 21.15 ± 0.54 ng/mL | 110.7 ± 1.34 ng/mL | 727.6 ± 68.05 ng/mL | T1/2 ([1]; listed as salsolinol): about 3 h |
| CCN1C[C@]2(COC)[C@H](O)C[C@H](OC)[C@@]34[C@@H]5C[C@@]6(O)[C@H](OC(=O)c7ccccc7)[C@@H]5[C@@](OC(C)=O)([C@@H]([C@H](OC)[C@H]23)[C@@H]14)[C@@H](O)[C@@H]6OC [Aconitine] | – | – | – | – | – | – | 2679 ± 1574 L/kg | 1.049 ± 0.05 ng/mL | 9.558 ± 0.29 ng/mL | 163.7 ± 5.25 ng/mL | 1.087 ± 0.12 ng/mL | 9.053 ± 0.24 ng/mL | 162.6 ± 9.72 ng/mL | 1.082 ± 0.05 ng/mL | 10.05 ± 0.97 ng/mL | 157.4 ± 3.86 ng/mL | 1.125 ± 0.11 ng/mL | 9.042 ± 0.48 ng/mL | 156.9 ± 8.39 ng/mL | AUC(0-inf) ([1]; Sprague-Dawley (SD), in vivo): 50.1 ± 16 ng·h/mL; AUC(0-t) ([1]; Sprague-Dawley (SD), in vivo): 48.9 ± 16.4 ng·h/mL; half-life ([1]; Sprague-Dawley (SD), in vivo): 254 ± 110 min; CL/F ([1]; Sprague-Dawley (SD), in vivo, read-out: CL/F (converted)): 425 L/h/kg; Cmax ([1]; Sprague-Dawley (SD), in vivo, read-out: Cmax): 8.96 ± 2.22 ng/mL; Tmax ([1]; Sprague-Dawley (SD), in vivo, read-out: Tmax): 0.75 h; half-life ([1]; Sprague-Dawley, in vivo): ~240 min |
